Legend:
Dimeric Human Ang-2FD = biological target: T1, Dimeric Human Ang-2FD (Homo sapiens, UniProt O15123); assay: Surface plasmon resonance binding to dimeric human Ang-2FD conjugated to human IgG1; details: SPR, room temperature
T1 sequence (O15123 282-496): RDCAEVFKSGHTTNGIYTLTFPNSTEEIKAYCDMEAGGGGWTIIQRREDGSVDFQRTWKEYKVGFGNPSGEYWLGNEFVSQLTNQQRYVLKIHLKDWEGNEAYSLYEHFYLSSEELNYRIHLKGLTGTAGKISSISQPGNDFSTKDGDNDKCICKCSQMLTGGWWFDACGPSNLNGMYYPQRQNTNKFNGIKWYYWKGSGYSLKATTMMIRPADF
Procedure: (§1) Equilibrium dissociation constants (KD values) for the binding of selected purified Ang-2 antibodies to dimeric fibrinogen-like domain of human (SEQ ID NO: 519), mouse (Mus musculus; SEQ ID NO: 520) and monkey (Macca fascicularis; SEQ ID NO: 521) Ang-2 (Ang-2FD) conjugated to human IgG1 (SEQ ID NO:528) were determined by surface kinetics using a real-time biosensor surface plasmon resonance assay. Antibody was captured on a goat anti-mouse IgG polyclonal antibody surface, a goat anti-human κ polyclonal antibody (Southern Biotech, Birmingham, Ala.) surface or a goat anti-human IgG polyclonal antibody (Jackson Immuno Research Lab, West Grove, Pa.) surface created through direct amine coupling to a BIACORE™ CM5 sensor chip to form a captured antibody surface. Varying concentrations (ranging from 50 nM to 6.25 nM) of protein were injected at 100 μl/min over captured antibody surface for 90 seconds. Antigen-antibody binding and dissociation were monitored in real time at room temperature. Kinetic analysis was performed to calculate KD and half-life of antigen/antibody complex dissociation.
The above experiment was repeated using selected purified anti-Ang-2 antibodies cloned onto human IgG1.

Monomeric hAng-2FD = biological target: T2, Monomeric hAng-2FD (Homo sapiens, UniProt O15123); assay: SPR binding to monomeric hAng-2FD (Table 8)
T2 sequence (O15123 282-496 limits assumed): T1 sequence (O15123 282-496)
Procedure: as §1
In yet another experiment, KD values for selected purified antibodies that bind to wild-type human Ang-2 (hAng-2-WT; SEQ ID NO: 518) and the fibrinogen-like domain of human Ang2 (hAng-2FD) were determined (as described above).

MMT tumors = assay: MMT tumor growth in SCID mice; type: in vivo; details: H1H685P 12.5 mg/kg, VEGF Trap 5 mg/kg
Procedure: To provide additional evidence of combination efficacy, the effect of the H1H685P+VEGF Trap combination on the growth of MMT tumors was assessed. 0.5×10^6 MMT cells were implanted subcutaneously into the right hind flank of 6-8 week-old female SCID mice. […] The Fc and H1H685P groups were given 3 doses over 9 days. The VEGF Trap and combination groups were given 4 doses over 12 days. Tumor volumes were measured twice per week over the course of the experiment and tumor weights were measured upon excision of tumors at the end of the experiment (due to their large size, tumors from the Fc and H1H685P groups were collected 3 days before tumors from the VEGF Trap and combination groups). Averages (mean+/−standard deviation) of tumor growth from the beginning of treatment and of tumor weight were calculated for each group. Percent decrease of tumor weight and growth are calculated from comparison to the Fc control group.

[1] = tested on: Tie-2 phosphorylation (Ang-2-mediated) in HUVECs; assay: Inhibition of Ang-2-mediated Tie-2 phosphorylation in FOXO1-adenovirus infected HUVECs; type: cell-based, human; details: antibody 0.5 μg/ml
Procedure: Further, the inventors have shown that infection of HUVECs with an adenovirus encoding FOXO1 results in expression and secretion of Ang-2, followed by activation of Tie-2 phosphorylation (Daly et al. 2006 PNAS 103:15491).
Anti-Ang-2 antibodies were tested for their ability to inhibit Tie-2 phosphorylation. Briefly, 7×10^5 HUVECs (Vec Technologies, Rensselaer, N.Y.) were plated in 6 cm cell culture dishes in 3.5 ml of MCDB131 Complete medium (Vec Technologies, Rensselaer, N.Y.). The following day, the cells were washed with Opti-MEM (Invitrogen Corp., Carlsbad, Calif.) and fed with 2 ml of Opti-MEM. […] Cells were then washed with MCDB131 and fed with 2 ml of MCDB131 containing anti-Ang-2 antibodies at a concentration of 0.5 μg/ml. At twenty hours post infection, cells were lysed and subjected to Tie-2 immunoprecipitation as described by Daly et al., Proc. Natl. Acad. Sci. USA 103:15491-15496 (2006). Immunoglobulin was collected on protein A/G beads (Santa Cruz Biotechnology, Santa Cruz, Calif.) for one hour. […] Signals were detected using HRP-conjugated secondary antibodies and ECL reagents (GE Healthcare, Piscataway, N.J.). X-Ray films were scanned and the phospho-Tie-2 and Tie-2 signals were quantified using ImageJ software. […]

[2] = biological target: biotin-hBA2 binding to hTie-2 (Homo sapiens, UniProt O15123); assay: ELISA blocking of biotinylated hBA2 binding to hTie-2-His; type: biochemical; details: antibodies cloned onto human IgG1; NB: no blocking observed at 5 nM concentration; read-out: Biotin - hBA2 IC50
Procedure: For this experiment, human Tie-2 conjugated to a histidine tag (hTie-2-His; SEQ ID NO:526) was used in a similar fashion to the hTie-2-mFc described above. Antibody concentrations from 5 nM were serially diluted three-fold. […] An average IC50 value for each antibody was calculated based on two separate experiments.

Chain of biotin-hBA2 binding to hTie-2 (O15123 with tags, fused parts or gaps): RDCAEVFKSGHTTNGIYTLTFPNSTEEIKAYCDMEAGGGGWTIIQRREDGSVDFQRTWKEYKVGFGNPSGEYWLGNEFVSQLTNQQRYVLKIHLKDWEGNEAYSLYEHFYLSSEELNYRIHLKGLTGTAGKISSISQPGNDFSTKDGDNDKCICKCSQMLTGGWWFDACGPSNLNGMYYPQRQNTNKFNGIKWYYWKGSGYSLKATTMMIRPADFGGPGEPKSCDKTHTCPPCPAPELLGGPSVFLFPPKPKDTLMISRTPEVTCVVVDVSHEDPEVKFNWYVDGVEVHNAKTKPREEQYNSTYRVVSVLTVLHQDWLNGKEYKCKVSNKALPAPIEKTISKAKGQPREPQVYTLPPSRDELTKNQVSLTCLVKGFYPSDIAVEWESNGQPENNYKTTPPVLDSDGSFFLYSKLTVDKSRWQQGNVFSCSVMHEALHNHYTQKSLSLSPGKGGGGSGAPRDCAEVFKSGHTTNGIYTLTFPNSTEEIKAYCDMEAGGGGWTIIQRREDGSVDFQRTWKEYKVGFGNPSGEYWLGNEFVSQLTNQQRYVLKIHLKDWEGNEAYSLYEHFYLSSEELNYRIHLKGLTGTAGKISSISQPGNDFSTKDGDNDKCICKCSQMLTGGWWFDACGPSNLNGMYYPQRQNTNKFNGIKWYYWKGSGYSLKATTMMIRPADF

## H1H685P: human anti-Ang-2 antibody, HCVR/LCVR SEQ ID NOs 18/20; also referred to as mAb1 [Antibody H1H685P]
Dimeric Human Ang-2FD
  Kd: 0.0714 nM
Monomeric hAng-2FD
  Kd: 0.578 nM
MMT tumors
  % Decrease in Tumor Growth: 15%
  % Decrease in Tumor Weight: 11%
  Avg Tumor Growth: 1135 ± 306 mm^3
  Avg Tumor Weight: 1.409 ± 0.314 g
[1]
  Inhibition of Tie-2 phosphorylation: +++ (75-100%)
  Inhibition of Tie-2 phosphorylation (in words): Especially robust inhibition
[2]
  IC50: 0.02 nM
